According to patent US8232452B2, “Methods, means and compositions for enhancing agrobacterium-mediated plant cell transformation efficiency” (priority 2005, dated 2012):
Where two headings read alike, the source gives them in different places.

Legend:
Agrobacterium = format: in vivo
N. benthamiana [1] = format: cell-based; settings: leaf tissue transiently expressing the effector, t=600 s
N. benthamiana [2] = format: cell-based; settings: induced with flagellin or INF1
[3] = test system: SIPK (a MAP Kinase from N. benthamiana); format: cell-based; settings: induced with PtabF
N. benthamiana [4] = format: in vivo
tomato = assay: Nonhost HR assay in tomato; format: in vivo
Method: For elicitation of the HR, purified flagellin or INF1 were infiltrated (at 100 μg/ml) in the first fully expanded leaf of three to four week-old plants. A. tumefaciens mediated transient expression was performed as described previously. The tissue was usually used for further experimentation 2 dpi.

Arabidopsis [5] = assay: Oxidative burst in Arabidopsis expressing AvrPto / AvrPtoB; format: cell-based; settings: Arabidopsis expressing the effector
Excerpt: FIG. 13. […] Western Blot confirms the expression of the protein. […] The excel graph is a quantitative readout of the same experiment.

N. benthamiana [6] = assay: Measurement of calcium influx (aequorin) in N. benthamiana; settings: N. benthamiana expressing the effector
Method: An intracellular increase of calcium was measured by Agrobacterium-mediated transient expression of 35S:aequorin [3]. Leaf discs (2*0.38 cm^2/well) were floated on H2O containing 2.5 μM coelentherazine overnight in the dark and at room temperature, and luminescence was measured after elicitation withl0 μg/ml PtabF using the Photek camera system.

Agrobacterium (C58C1) = assay: Bacterial growth curves of A. tumefaciens C58C1 in N. benthamiana
Arabidopsis [7] = assay: Flagellin HR in Arabidopsis; format: in vivo
rice = assay: Flagellin HR in rice; format: in vivo
Arabidopsis cells = assay: Extracellular (medium) alkalinization in cultured cells; format: cell-based; settings: 100 nM peptide, saturating dose
receptor sites for EF-Tu = biological target: T1, receptor sites for EF-Tu (Arabidopsis thaliana, UniProt C0LGT6); assay: Number of receptor sites for EF-Tu (elf-^125I binding) after pretreatment with flg22
T1 construct: from tissue; host or cells: crude extracts of Arabidopsis seedlings
T1 sequence (C0LGT6 25-1031): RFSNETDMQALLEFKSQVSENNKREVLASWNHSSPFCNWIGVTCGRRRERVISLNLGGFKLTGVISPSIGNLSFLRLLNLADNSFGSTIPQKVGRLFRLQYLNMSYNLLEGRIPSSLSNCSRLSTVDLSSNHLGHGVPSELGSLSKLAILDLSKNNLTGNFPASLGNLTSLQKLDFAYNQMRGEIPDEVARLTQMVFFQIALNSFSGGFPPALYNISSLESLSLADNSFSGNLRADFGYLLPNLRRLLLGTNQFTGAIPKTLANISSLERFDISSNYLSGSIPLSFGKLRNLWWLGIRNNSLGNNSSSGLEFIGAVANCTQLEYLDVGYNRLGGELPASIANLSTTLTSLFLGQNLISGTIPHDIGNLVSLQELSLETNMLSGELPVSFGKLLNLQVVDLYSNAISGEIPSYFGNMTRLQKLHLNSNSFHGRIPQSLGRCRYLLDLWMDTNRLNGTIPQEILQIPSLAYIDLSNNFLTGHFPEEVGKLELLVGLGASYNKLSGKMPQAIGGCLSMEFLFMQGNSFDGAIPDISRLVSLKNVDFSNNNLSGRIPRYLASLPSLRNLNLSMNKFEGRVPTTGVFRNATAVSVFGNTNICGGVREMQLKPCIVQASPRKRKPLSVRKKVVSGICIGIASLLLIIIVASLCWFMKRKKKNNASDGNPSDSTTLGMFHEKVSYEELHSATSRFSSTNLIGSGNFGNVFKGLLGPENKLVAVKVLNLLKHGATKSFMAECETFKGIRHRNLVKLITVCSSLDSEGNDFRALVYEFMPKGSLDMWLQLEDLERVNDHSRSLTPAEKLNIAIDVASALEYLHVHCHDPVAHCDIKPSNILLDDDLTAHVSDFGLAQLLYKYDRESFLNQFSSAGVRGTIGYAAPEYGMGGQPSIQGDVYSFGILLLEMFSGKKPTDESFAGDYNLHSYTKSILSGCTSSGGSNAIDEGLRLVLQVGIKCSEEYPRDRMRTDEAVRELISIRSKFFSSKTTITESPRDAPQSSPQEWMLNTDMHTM

Arabidopsis seedlings = assay: Seedling growth inhibition assay; format: in vivo; settings: line SALK—044334 (efr-1), 1 μM
Method: Fresh weight of seedlings was determined 7 days later. Values represent average and standard variation of n=6.
Pictures were taken after one week of treatment.
(§1) EF-Tu perception shares many features with perception of flagellin. Both PAMPs are peptides which activate their receptors in a two step process according to the concept of address-message (Bauer et al., 2001; Kunze et al., 2004). […] Thus, we speculated that perception of EF-Tu might involve a RLK gene related to FLS2 and that belongs to the group of RLKs induced after stimulation with both PAMPs. Starting with close relatives of FLS2 we established a collection of homozygous T-DNA-tagged mutants for induced LRR-RLKs from lines provided by the Salk collection (Alonso et al., 2003). These mutant lines were then tested for response to EF-Tu using the seedling growth inhibition assay that has been successfully employed previously to screen for flg22-insensitive mutants (Gómez-Gómez and Boller, 2000). […] Apart from lack of responses to EF-Tu-derived elicitors, this line was indistinguishable from wild-type plants and no other phenotype became apparent over several generations.

Arabidopsis leaf tissues = assay: Oxidative burst in leaf tissues (luminol based assay); format: cell-based; settings: line SALK—044334 (efr-1) leaf tissue, 1 μM
Excerpt: (B) Oxidative burst in leaf tissues of wild-type Col-0, efr-1 and fls2 plants. […] Results are averages±standard errors (n=8).
as §1

A. tumefaciens = assay: Agrobacterium-mediated transient GUS expression in Arabidopsis leaves with co-injected peptides; settings: co-injection of 1 μM peptide with A. tumefaciens, 4 dpi
Method: (B) Quantitative GUS assays with extracts from leaves of wild type and efr-1 mutants 4 days after infiltration with 2*10^8 A. tumefaciens carrying pBIN19-35S::GUS. […] Bars and error bars represent mean and standard error of n=6 independent extractions from two leaves each.
Agrobacterium-mediated expression in Arabidopsis was performed as described previously (Joh et al., 2005). Briefly, Agrobacterium GV3101 strain carrying the GUS-intron transgene in pBIN19g was grown overnight in L medium at 28° C. This culture was diluted 10-fold in fresh L medium and incubated for further 5 h. Bacteria were then collected by centrifugation, resuspended in water at an OD600 of 0.4, and injected into leaves of 4-5 week-old Arabidopsis plants.
To test if EF-Tu perception plays a role in restricting A. tumefaciens infection, wild-type (Col-0) and efr-1 leaves were injected with the hyper-virulent non-tumorigenic strain of A. tumefaciens (GV3101) harbouring a binary plasmid containing a β-glucuronidase (GUS)-intron construct that allows expression in plants but not in bacteria.

## O=CC[C@@H](O)[C@H](O)[C@H](O)CO [2-DDG, 2-deoxy-D-Glucose]
Agrobacterium; 250 μM, sprayed one day prior to Agrobacterium infiltration
  level of GUS expression: seemed to improved the level of GUS expression
Agrobacterium; spray pre-treatment combined with co-infiltration, xanthan gum 150 μg/ml, 2-DDG 250 μM (FIG. 17)
  level of GUS expression: significantly enhanced

## AvrPtoB: P. syringae type-III effector protein expressed in the plant tissue, unrelated to AvrPto
N. benthamiana [1]
  effect on PtabF-induced ROS: Suppression of PtabF-induced ROS
N. benthamiana [2]
  effect on callose deposition: Suppression
[3]
  effect on MAPK activation: Suppression
N. benthamiana [4]
  effect on nonhost HR induced by flagellin: suppress this nonhost HR
tomato; tomato
  effect on nonhost HR induced by flagellin: suppress this nonhost HR
Arabidopsis [5]
  effect on oxidative burst: exact same result
N. benthamiana [6]
  effect on calcium burst: suppress calcium burst
Agrobacterium (C58C1)
  growth of Agrobacterium (C58C1): enhance the growth of Agrobacterium

## Flagellin
N. benthamiana [4]; flagellin from Pseudomonas syringae
  nonhost HR: induces a nonhost HR
tomato; tomato (76R), flagellin from Pseudomonas syringae
  nonhost HR: induces a nonhost HR
Arabidopsis [7]
  HR: No flagellin HR
rice
  HR: induce the HR

## flg22: the flagellin peptide recognized by most plants (QRLTTGYRINSAKDDAAGLQIS)
Arabidopsis cells
  time lag of alkalinization: only few seconds
Receptor sites for EF-Tu; cultured cells, data not shown
  increase in specific receptor sites for the other PAMP (EF-Tu): > 2 fold
Receptor sites for EF-Tu; seedlings, 1 μM flg22, within 4 to 6 h of treatment
  number of specific binding sites for EF-Tu relative to controls: > 2 fold
Arabidopsis seedlings
  seedling growth: as sensitive to treatment with flg22 as wild-type seedlings
Arabidopsis leaf tissues
  oxidative burst: full response
A. tumefaciens; efr-1 leaves
  transformation (GUS activity): strongly reduced transformation
A. tumefaciens; wild type leaves
  GUS expression: nearly abolished GUS expression
